In patent publication US8318717B2, “Compounds modifying apoptosis” (2cureX, priority 2005, dated 2012):

Experiments:
[1] = test system: human colorectal adenocarcinoma cell line HT-29; experiment: Xenograft study, HT-29 tumours in nude mice; assay type: in vivo, nude BALB/c mice
Description: Female athymic nude BALB/c mice (BALB/cABom-Foxn1^nu, CA.Cg-Foxn1^nu) are obtained from Taconic Ltd, Ry, Denmark and maintained in the animal facility. Animals are approximately 6 weeks old with an initial body weight of 17-18 g when used for the experiments. The mice are housed in microisolators (filter top cages, Tecniplast, Buguggiata, Italy) under pathogen-free conditions with a 12-h light/12-h dark schedule and fed autoclaved standard chow (Altromin #1324, Lage, Germany) and water ad libitum throughout the experiment. All animals are handled under sterile conditions and maintained in a separate facility. The Danish Experimental Animal Inspectorate has approved the experimental protocol and all animal experiments are performed according to the ethical standards required by the UKCCCCR Guidelines {UKCCCR 1998}. During the study blood samples is taken one time per week. The number of animals per group (control-treatment) should be 8 animals at a minimum. Thirty-fifty percent more animals are inoculated with cells than needed in the study in order to be able to exclude animals in which there is no tumour take—i.e. the tumour fails to establish and grow progressively.
The human colorectal adenocarcinoma cell line HT-29 (HTB-38) has been obtained from the American Type Culture Collection (ATCC) Manassas, Va., USA. Tumour cells growing exponentially are harvested by brief incubation with 0.05% Trypsin-EDTA solution suspended in new medium for injection.
Tumour xenografts are initiated by subcutaneous (s.c.) injection of 10^7 cells into the left flank of nude mice. […]
Tumour volume, food consumption, body weight is measured twice a week. […] Evaluation of tumour growth: The tumours are measured every 3-4 day with a calliper. Baseline tumour weight are calculated by using the following formula mg=(L×W^2)/2 where L=length, W=width and these are perpendicular to each other {Teicher BA 1997}. […]
All data are expressed as the mean±SEM, and statistical analyses of the tumour data are performed using t-test. […]

[2] = biological target: T1, XIAP (Homo sapiens, UniProt P98170); experiment: Pull down of XIAP from cell lysates by compound-carrying beads (Western); assay type: binding
T1 construct: pull down one member of the IAP family, XIAP from cell lysates prepared from various tissues; endogenous in cells; host or cells: Hek293 cells, Hela cells, colon tissue (lysates)
Method: Beads displaying compound 2CX2.201 or 2CX4.401 respectively are compared with regard to their ability to bind and pull down one member of the IAP family, XIAP from cell lysates prepared from various tissues.
• Positive control resin beads carrying a tetra-peptide (H-Ala-Val-Pro-Phe-Bead) mimicking the N-terminal part of Smac that binds to BIR3 domain of XIAP was prepared. The method of preparation was analogous to the general procedure described in example 2 with the change that only the four specific peptides were included in each of the four couplings and that the split and mix step was omitted. • Resin beads carrying 2CX2.201 was prepared as described above. • Resin beads carrying 2CX4.401 was prepared as described above. Lysate Preparation: • Hek293 and Hela: Cells are scraped off the plate in Phosphate Buffered Saline (PBS) at 4° C. • Colon tissue: Is blended into a homogeneous suspension in PBS at 4° C. • All cell suspensions are centrifuged for 10 min at 3000 rpm and supernatant is discarded. • Pellet is re-suspended in lysis buffer (50 mM Tris-HCL, 1 mM EGTA, 1 mM EDTA, 1% Triton-X W/W, 1 mM Sodium orthovanadate, 50 mM Sodium fluoride, 5 mM Sodium pyrophosphate, 1 mM MDTT, “Complete” (protease inh.) One tablet for 50 ml) • Incubate for 20 min at 4° C. • Centrifuge at 32.000 G for 30 min, 4° C. • Move supernatant to new vial (discard pellet) • Measure protein concentration Pull Down: • Bead/lysate ratio: 20 ul beads/10 mg lysate (equivalent to one pull down) • Beads are washed in 1 ml lysis buffer×2 • Lysate+beads are mixed and incubated for 1 hrs at 4° C., shaking • Beads are washed ×4 in 1 ml Lysis buffer w. […]

[3] = test system: primary colon cancer cells from patients and colon cancer lines (i.e. HT29); experiment: Cell penetration, IAP inhibition and apoptosis in colon cancer cells; assay type: cell-based, human
[4] = Stability in serum from mice; assay type: in vitro ADME

T1 sequence (P98170 whole entry): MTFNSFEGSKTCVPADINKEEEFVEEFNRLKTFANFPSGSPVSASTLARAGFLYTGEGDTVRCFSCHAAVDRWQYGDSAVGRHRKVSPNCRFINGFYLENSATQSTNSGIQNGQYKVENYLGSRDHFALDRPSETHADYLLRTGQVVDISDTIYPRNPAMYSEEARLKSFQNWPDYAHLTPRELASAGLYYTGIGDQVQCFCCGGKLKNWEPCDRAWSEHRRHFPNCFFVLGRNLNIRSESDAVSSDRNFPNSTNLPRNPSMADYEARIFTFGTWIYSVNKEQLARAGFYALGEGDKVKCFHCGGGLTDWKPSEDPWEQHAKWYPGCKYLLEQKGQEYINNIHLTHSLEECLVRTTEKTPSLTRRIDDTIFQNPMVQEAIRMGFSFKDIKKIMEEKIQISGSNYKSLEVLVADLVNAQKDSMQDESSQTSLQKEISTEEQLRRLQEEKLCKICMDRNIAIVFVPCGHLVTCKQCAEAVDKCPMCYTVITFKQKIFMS

pull down of XIAP (FIG. 5b) ([2]; prolonged exposure time to increase sensitivity): weaker effect | stability in serum [4]: high degree of stability
SMILES: CN[C@@H](C)C(=O)N[C@H](C(=O)N1C[C@@H](NCC2CCCCC2)C[C@H]1C(=O)N[C@@H](Cc1ccccc1)C(N)=O)C(C)C [2CX4.401]
effect on Paclitaxel efficacy (tumour weight) ([1]; combination with paclitaxel, 29 days after inoculation, FIG. 4): significantly potentiated the effect of Paclitaxel | tumour weight relative to that observed with Paclitaxel alone ([1]; combined treatment: 2CX4.401 0.0625 mg/h osmotic pump + paclitaxel 25 mg/kg s.c. once a week, 29 days after inoculation): approx. 15% | tumour growth in mono-therapy ([1]; mono-therapy, osmotic pump 0.0625 mg/h, 29 days): does not affect tumour growth | affinity for XIAP, comparison of the two compounds ([2]; conclusion from pull down experiments): significant higher affinity than that of 2CX2.201 | pull down of XIAP (FIG. 5a) ([2]; lysates of Hek293, Hela, colon tissue, compound on beads): approximately the same degree as the endogenous AVPF peptide | apoptosis [3]: promote apoptosis | inhibition of IAPs [3]: inhibits IAPs
